For the assay, the target named is Recombinant human factor B (Homo sapiens (Human), UniProt P00751). Nature of the assay: Human Complement Factor B TR-FRET Assay. Type of assay: binding. The settings on record: * = assay behavior at and above the stated concentration prevented IC50 determination. The method, then: The time-gated decrease in fluorescence intensity related to the competition between labeled and unlabeled factor B ligands was recorded at both 620 nm and 665 nm, 70 μs after excitation at 337 nm using a microplate spectrofluorimeter.
Background: TR-FRET usually uses a lanthanide donor and a delayed reading to cut background.

Where [1] appears, read: displacement of labeled factor B ligand, read-out: hFactor-B TR-FRET Qualified IC50.

Where two headings read alike, the source gives them in different places.

Sequence of Recombinant human factor B (P00751 26-764): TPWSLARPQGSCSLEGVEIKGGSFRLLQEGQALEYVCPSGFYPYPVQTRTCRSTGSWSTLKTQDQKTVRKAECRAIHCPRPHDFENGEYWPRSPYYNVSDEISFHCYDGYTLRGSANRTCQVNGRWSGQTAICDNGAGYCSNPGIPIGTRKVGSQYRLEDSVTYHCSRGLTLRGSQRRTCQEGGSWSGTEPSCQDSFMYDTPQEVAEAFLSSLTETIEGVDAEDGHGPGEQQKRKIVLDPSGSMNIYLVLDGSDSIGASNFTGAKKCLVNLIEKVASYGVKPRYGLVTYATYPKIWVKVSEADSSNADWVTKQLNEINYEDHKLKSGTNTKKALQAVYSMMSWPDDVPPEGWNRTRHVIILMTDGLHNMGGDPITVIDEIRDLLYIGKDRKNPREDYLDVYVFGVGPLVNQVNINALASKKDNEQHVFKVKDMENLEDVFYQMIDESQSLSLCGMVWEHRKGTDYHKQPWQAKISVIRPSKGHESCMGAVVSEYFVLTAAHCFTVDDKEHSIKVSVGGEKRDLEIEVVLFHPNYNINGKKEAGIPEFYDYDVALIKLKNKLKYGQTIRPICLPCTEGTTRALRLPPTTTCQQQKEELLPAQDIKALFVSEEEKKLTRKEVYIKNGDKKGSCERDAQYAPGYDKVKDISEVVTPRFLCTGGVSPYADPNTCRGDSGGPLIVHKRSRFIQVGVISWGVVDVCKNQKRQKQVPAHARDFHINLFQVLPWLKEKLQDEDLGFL

Regarding `COc1cc(C)c2[nH]ccc2c1CN1CCC2(CC1c1ccc(C(=O)O)cc1)CC(C)(O)C2` (racemic) [Ex-13], under setting [1], the IC50 worked out at 29.4 nM.

As to `COc1cc(C)c2[nH]ccc2c1CN1CCC2(CC1c1ccc(C(=O)O)cc1)CC(C)(O)C2` (racemic) [Ex-16], the concentration for half-maximal inhibition (IC50) under setting [1] turned out to be 434 nM. With `COc1cc(C)c2[nH]ccc2c1CN1CCC2(CC1c1ccccc1)CC(F)(F)C2` (racemic) [Ex-35], the IC50 under setting [1] worked out at 17.3 nM. The same measure, in the same setting: the value for `COc1cc(C)c2[nH]ccc2c1CN1CCC2(CC1c1cnn(C)c1)CC(F)(F)C2` (racemic) [Ex-36] was 24.5 nM. Consider `COc1cc(C)c2[nH]ccc2c1CN1CCC2(CC1c1ccc(C(=O)O)cc1)CC(F)(F)C2` (racemic) [Ex-47], for which the IC50 (hFactor-B TR-FRET Qualified IC50, displacement of labeled factor B ligand) amounted to 2.5 nM. For `Cc1cc(C2CC2)c(CN2CCC3(CC2c2ccc(C(C)(C)O)cc2)CC(F)(F)C3)c2cc[nH]c12` (racemic) [Ex-48], the IC50 under setting [1] was determined as 8.9 nM. Same read-out and setting: as for `Cc1cc(C2CC2)c(CN2CCC3(CC2c2ccc(C4(O)COC4)cc2)CC(F)(F)C3)c2cc[nH]c12` (racemic) [Ex-49, 3-(4-(7-((5-cyclopropyl-7-methyl-1H-indol-4-yl)methyl)-2,2-difluoro-7-azaspiro[3.5]nonan-6-yl)phenyl)oxetan-3-ol], the figure is 5.6 nM; as for `Cc1cc(C2CC2)c(CN2CCC3(CC2c2ccc(-n4cccn4)cc2)CC(F)(F)C3)c2cc[nH]c12` (racemic) [Ex-50], 7 nM. `Cc1cc(C2CC2)c(CN2CCC3(CC2c2ccc(-c4ccn[nH]4)cc2)CC(F)(F)C3)c2cc[nH]c12` (racemic) [Ex-51]: the half-inhibitory concentration (IC50) under setting [1] amounted to 4.2 nM.

With `COc1cc(C)c2[nH]ccc2c1CN1CCC2(CC1c1ccc(C(F)F)cc1)CC(F)(F)C2` (racemic) [Ex-52], under setting [1], the IC50 turned out to be 172 nM.

With `COc1cc(C)c2[nH]ccc2c1CN1CCC2(CC1c1ccc(-c3nnn[nH]3)cc1)CC(F)(F)C2` (racemic) [Ex-54, (SR)-6-(4-(1H-tetrazol-5-yl)phenyl)-2,2-difluoro-7-((5-methoxy-7-methyl-1H-indol-4-yl)methyl)-7-azaspiro[3.5]nonane], the IC50 under setting [1] turned out to be 2.2 nM. Still for that read-out and setting: as for `Cc1cc(C2CC2)c(CN2CCC3(CC2c2ccc(-c4nnn[nH]4)cc2)CC(F)(F)C3)c2cc[nH]c12` (racemic) [Ex-57, 6-(4-(1H-tetrazol-5-yl)phenyl)-7-((5-cyclopropyl-7-methyl-1H-indol-4-yl)methyl)-2,2-difluoro-7-azaspiro[3.5]nonane], the figure is 5 nM. Same read-out and setting: as for `COc1cc(C)c2[nH]ccc2c1CN1CCC2(CC1c1ccc(-c3nnn[nH]3)nc1)CC(F)(F)C2` (racemic) [Ex-58, (SR)-6-(6-(1H-tetrazol-5-yl)pyridin-3-yl)-2,2-difluoro-7-((5-methoxy-7-methyl-1H-indol-4-yl)methyl)-7-azaspiro[3.5]nonane], the figure is 3.8 nM; as for `Cc1cc(C2CC2)c(CN2CCC3(CC2c2ccc(-c4nnn[nH]4)nc2)CC(F)(F)C3)c2cc[nH]c12` (racemic) [Ex-61, (SR)-6-(6-(1H-tetrazol-5-yl)pyridin-3-yl)-7-((5-cyclopropyl-7-methyl-1H-indol-4-yl)methyl)-2,2-difluoro-7-azaspiro[3.5]nonane], 3.8 nM; as for `COc1cc(C)c2[nH]ccc2c1CN1CCC2(C[C@H]1c1ccc(C(=O)O)cc1)CC(C)(F)C2` (single isomer, unassigned) [Ex-1], 0.5 nM. Still for that read-out and setting: the value for `COc1cc(C)c2[nH]ccc2c1CN1CCC2(C[C@@H]1c1ccc(C(=O)O)cc1)CC(C)(F)C2` (single isomer, unassigned) [Ex-2] was 6810 nM. Consider `COc1cc(C)c2[nH]ccc2c1CN1CCC2(C[C@H]1c1ccc(C(=O)O)cc1)CC(C)(F)C2` (single isomer, unassigned) [Ex-3], for which the half-maximal inhibitory concentration (IC50) under setting [1] came to 40.7 nM. Consider `COc1cc(C)c2[nH]ccc2c1CN1CCC2(C[C@@H]1c1ccc(C(=O)O)cc1)CC(C)(F)C2` (single isomer, unassigned) [Ex-4], for which the half-maximal inhibitory concentration (IC50) under setting [1] was found to be 461 nM. Same read-out and setting: as for `COc1cc(C)c2[nH]ccc2c1CN1CCC2(CC(F)C2)C[C@H]1c1ccc(C(=O)O)cc1` (single isomer, unassigned) [Ex-7], the figure is 0.8 nM; as for `COc1cc(C)c2[nH]ccc2c1CN1CCC2(CC(F)C2)C[C@@H]1c1ccc(C(=O)O)cc1` (single isomer, unassigned) [Ex-8], 227 nM. The same measure, in the same setting: as for `COc1cc(C)c2[nH]ccc2c1CN1CCC2(CC(F)C2)C[C@H]1c1ccc(C(=O)O)cc1` (single isomer, unassigned) [Ex-9, 4-(2-fluoro-7-((5-methoxy-7-methyl-1H-indol-4-yl)methyl)-7-azaspiro[3.5]nonan-6-yl)benzoic acid], the figure is 2.1 nM. On the same count and under the same terms, the value for `COc1cc(C)c2[nH]ccc2c1CN1CCC2(CC(F)C2)C[C@@H]1c1ccc(C(=O)O)cc1` (single isomer, unassigned) [Ex-10] was 242 nM; that for `COc1cc(C)c2[nH]ccc2c1CN1CCC2(C[C@@H]1c1ccc(C(=O)O)cc1)CC(C)(O)C2` (single isomer, unassigned) [Ex-14] was 10000 nM. In the case of `COc1cc(C)c2[nH]ccc2c1CN1CCC2(C[C@H]1c1ccc(C(=O)O)cc1)CC(C)(O)C2` (single isomer, unassigned) [Ex-15], under setting [1], the IC50 was 105 nM. Regarding `COc1cc(C)c2[nH]ccc2c1CN1CCC2(CCC(F)(F)C2)C[C@@H]1c1ccc(C(=O)O)cc1` (single isomer, unassigned) [Ex-17], under setting [1], the concentration for half-maximal inhibition (IC50) came to 320 nM. On the same count and under the same terms, as for `COc1cc(C)c2[nH]ccc2c1CN1CCC2(CCC(F)(F)C2)C[C@H]1c1ccc(C(=O)O)cc1` (single isomer, unassigned) [Ex-18, 4-((5S,7S)-2,2-difluoro-8-((5-methoxy-7-methyl-1H-indol-4-yl)methyl)-8-azaspiro[4.5]decan-7-yl)benzoic acid or 4-((5R,7S)-2,2-difluoro-8-((5-methoxy-7-methyl-1H-indol-4-yl)methyl)-8-azaspiro[4.5]decan-7-yl)benzoic acid], the figure is 3.4 nM; as for `COc1cc(C)c2[nH]ccc2c1CN1CCC2(CCC(F)(F)C2)C[C@@H]1c1ccc(C(=O)O)cc1` (single isomer, unassigned) [Ex-19], 1460 nM; as for `COc1cc(C)c2[nH]ccc2c1CN1CCC2(CCC(F)(F)C2)C[C@H]1c1ccc(C(=O)O)cc1` (single isomer, unassigned) [Ex-20], 7.6 nM.

Turning to `Cc1cc(C2CC2(F)F)c(CN2CCC3(C[C@H]2c2ccc(C(=O)O)cc2)CC(F)(F)C3)c2cc[nH]c12` (single isomer, unassigned) [Ex-23], the IC50 under setting [1] was 8.9 nM. Turning to `Cc1cc(C2CC2(F)F)c(CN2CCC3(C[C@H]2c2ccc(C(=O)O)cc2)CC(F)(F)C3)c2cc[nH]c12` (single isomer, unassigned) [Ex-24], the IC50 under setting [1] was determined as 31.4 nM. The same measure, in the same setting: as for `Cc1cc(C2CC2)c(CN2CCC3(C[C@H]2c2ccc(C4(O)COC4)cc2)CC(F)(F)C3)c2cc[nH]c12` (single isomer, unassigned) [Ex-25], the figure is 4 nM; as for `Cc1cc(C2CC2)c(CN2CCC3(C[C@@H]2c2ccc(C4(O)COC4)cc2)CC(F)(F)C3)c2cc[nH]c12` (single isomer, unassigned) [Ex-26], above 400 nM. Consider `Cc1cc(C2CC2)c(CN2CCC3(C[C@H]2c2ccc(C(C)(C)O)cc2)CC(F)(F)C3)c2cc[nH]c12` (single isomer, unassigned) [Ex-27], for which the half-maximal inhibitory concentration (IC50) under setting [1] was found to be 6.9 nM. Still for that read-out and setting: the value for `Cc1cc(C2CC2)c(CN2CCC3(C[C@@H]2c2ccc(C(C)(C)O)cc2)CC(F)(F)C3)c2cc[nH]c12` (single isomer, unassigned) [Ex-28] was above 400 nM. `Cc1cc(C2CC2)c(CN2CCC3(C[C@H]2c2ccc(-c4ccn[nH]4)cc2)CC(F)(F)C3)c2cc[nH]c12` (single isomer, unassigned) [Ex-29]: the IC50 under setting [1] worked out at 5.1 nM.

Take `Cc1cc(C2CC2)c(CN2CCC3(C[C@@H]2c2ccc(-c4ccn[nH]4)cc2)CC(F)(F)C3)c2cc[nH]c12` (single isomer, unassigned) [Ex-30]: the concentration for half-maximal inhibition (IC50) under setting [1] is above 100 nM. On the same count and under the same terms, as for `Cc1cc(C2CC2)c(CN2CCC3(C[C@H]2c2ccc(-n4cccn4)cc2)CC(F)(F)C3)c2cc[nH]c12` (single isomer, unassigned) [Ex-31], the figure is 3.8 nM.

As for `Cc1cc(C2CC2)c(CN2CCC3(C[C@@H]2c2ccc(-n4cccn4)cc2)CC(F)(F)C3)c2cc[nH]c12` (single isomer, unassigned) [Ex-32], under setting [1], the IC50 is above 400 nM. On the same count and under the same terms, as for `Cc1cc(C2CC2)c(CN2CCC3(C[C@H]2c2ccc(-c4nnn[nH]4)cc2)CC(F)(F)C3)c2cc[nH]c12` (single isomer, unassigned) [Ex-33], the figure is 1.6 nM; as for `Cc1cc(C2CC2)c(CN2CCC3(C[C@@H]2c2ccc(-c4nnn[nH]4)cc2)CC(F)(F)C3)c2cc[nH]c12` (single isomer, unassigned) [Ex-34], 124 nM. On the same count and under the same terms, the value for `COc1cc(C)c2[nH]ccc2c1CN1CCC2(C[C@H]1c1ccccc1)CC(F)(F)C2` (single isomer, unassigned) [Ex-37] was 11.2 nM; that for `COc1cc(C)c2[nH]ccc2c1CN1CCC2(C[C@@H]1c1ccccc1)CC(F)(F)C2` (single isomer, unassigned) [Ex-38] was 5510 nM; that for `COc1cc(C)c2[nH]ccc2c1CN1CCC2(C[C@H]1c1cnn(C)c1)CC(F)(F)C2` (single isomer, unassigned) [Ex-39] was 10.3 nM. On the same count and under the same terms, the value for `COc1cc(C)c2[nH]ccc2c1CN1CCC2(C[C@@H]1c1cnn(C)c1)CC(F)(F)C2` (single isomer, unassigned) [Ex-40] was 864 nM; that for `COc1cc(C)c2[nH]ccc2c1CN1CCC2(C[C@H]1c1cnn(C(F)F)c1)CC(F)(F)C2` (single isomer, unassigned) [Ex-41] was 9.6 nM; that for `COc1cc(C)c2[nH]ccc2c1CN1CCC2(C[C@@H]1c1cnn(C(F)F)c1)CC(F)(F)C2` (single isomer, unassigned) [Ex-42] was 861 nM. Turning to `COCCn1cc([C@H]2CC3(CCN2Cc2c(OC)cc(C)c4[nH]ccc24)CC(F)(F)C3)cn1` (single isomer, unassigned) [Ex-43], the IC50 under setting [1] was determined as 2790 nM.

What is called IC50 is the point on the concentration scale where inhibition reaches its midpoint.
